In ChEMBL document CHEMBL5236615, “Discovery of Novel N-Heterocyclic-Fused Deoxypodophyllotoxin Analogues as Tubulin Polymerization Inhibitors Targeting the Colchicine-Binding Site for Cancer Treatment” (J Med Chem, 2022):
Converted amounts (≈) assume the structure as drawn. The source made the active and inactive calls. The calls are words filed in the database; no cut-off is given here.

Assays:
HT-29 = test: Antiproliferative activity against human HT-29 cells measured after 72 hrs by MTT assay; type: functional, cell-based; conditions: HT-29, 72 h
[1] = Clearance in Sprague-Dawley rat at 10 mg/kg, iv measured upto 8 hrs by LC/MS/MS analysis; type: ADME, organism-based; conditions: in vivo
MCF7 [2] = test: Induction of apoptosis in human MCF7 cells assessed as upregulation of cleaved Caspase 3 at 5 to 20 nM measured after 24 hrs by Western blot analysis; type: functional, cell-based; conditions: dose 5-20 nM
MCF7 [3] = test: Induction of cell cycle arrest in human MCF7 cells assessed as accumulation of cells at G2/M phase at 20 nM measured after 24 hrs by flow cytometry relative to control; type: functional
MCF7 [4] = test: Induction of apoptosis in human MCF7 cells assessed as upregulation of p-Bim EL protein expression at 5 to 20 nM in presence of roscovitine measured after 24 hrs by Western blot analysis; type: functional, cell-based; conditions: dose 5-20 nM
K562 = test: cells; conditions: Homo sapiens, K562, 72 h
Description: Antiproliferative activity against human K562 cells measured after 72 hrs by MTT assay

MCF7 [5] = test: Antiproliferative activity against human MCF7 cells assessed as survival rate at 20 nM measured after 72 hrs by MTT assay relative to control; type: functional
[6] = Antitumor activity against paclitaxel-resistant human MCF7/TxR cells xenografted in Balb/c mouse assessed as tumor growth inhibition at 20 mg/kg, ip administered for every 2 days for 21 days; type: functional; conditions: 504 h, time 21 day, read-out: TGI
MCF7 [7] = test: Induction of cell cycle arrest in human MCF7 cells assessed as upregulation of Bcl2 phosphorylation at […] at 5 to 20 nM in presence of roscovitine measured after 24 hrs by Western blot analysis; type: functional, cell-based; conditions: dose 5-20 nM
Tubulin (Homo sapiens) = Tubulin (Homo sapiens) (UniProt P68371+Q9H4B7+P0DPH7+P68366+Q13509+Q71U36+P04350+Q3ZCM7+P07437+P68363+Q9BQE3+Q6PEY2+Q13885+Q9BVA1+Q9BUF5); test: Disruption of microtubule network in human MCF7 cells assessed as broken microtubule filaments at 20 nM measured after 6 hrs by immunofluorescence assay; type: cell-based
[8] = Tmax in Sprague-Dawley rat at 10 mg/kg, iv measured upto 8 hrs by LC/MS/MS analysis; type: ADME, organism-based; conditions: in vivo
[9] = AUC (0 to t) in Sprague-Dawley rat at 10 mg/kg, iv measured upto 8 hrs by LC/MS/MS analysis; type: ADME, organism-based; set-up: dose 10 mg/kg, time < 8 hrs, route iv; conditions: in vivo
MCF7 [10] = test: cells; conditions: Homo sapiens, MCF7, 72 h
Description: Antiproliferative activity against human MCF7 cells measured after 72 hrs by MTT assay

MCF7 [11] = test: Induction of cell cycle arrest in human MCF7 cells assessed as mitosis by measuring accumulation of histone H3 ser10 phosphorylation incubated for 24 hrs by Western blotting analysis; type: functional, cell-based; conditions: dose 5-25 nM
[12] = Toxicity in Balb/c mouse assessed as pathological changes in blood urea nitrogen level at 20 mg/kg, ip administered for every 2 days for 14 days; type: organism-based; conditions: in vivo, 336 h, time 14 day
HUVEC [13] = test: Inhibition of angiogenesis in HUVEC cells assessed as reduction in capillary tube formation after 6 hrs by phase contrast microscopy; type: functional, cell-based; conditions: Homo sapiens, dose 1.25-5 nM
[14] = Volume of distribution at steady sate in Sprague-Dawley rat at 10 mg/kg, iv measured upto 8 hrs by LC/MS/MS analysis; type: ADME, organism-based; conditions: in vivo, read-out: Vdss
HUVEC [15] = test: Inhibition of angiogenesis in HUVEC cells assessed as broken tubular network at 5 nM after 6 hrs by phase contrast microscopy; type: functional, cell-based; conditions: Homo sapiens
[16] = Toxicity in Balb/c mouse assessed as pathological changes in blood alanine aminotransferase level at 20 mg/kg, ip administered for every 2 days for 14 days; type: organism-based; conditions: in vivo, 336 h, time 14 day
[17] = Cardiotoxicity in Sprague-Dawley rat assessed as heart rate at 10 to 60 mg/kg, iv measured upto 60 mins by electrocardiography; type: toxicity, organism-based; conditions: in vivo, 1 h, dose 10-60 mg/kg
[18] = Antitumor activity against paclitaxel-resistant human MCF7/TxR cells xenografted in Balb/c mouse assessed as tumor growth inhibition at 10 mg/kg, ip administered for every 2 days for 21 days; type: functional; conditions: 504 h, time 21 day, read-out: TGI
[19] = Cardiotoxicity in Sprague-Dawley rat assessed as RR interval at 10 to 60 mg/kg, iv measured upto 60 mins by electrocardiography; type: toxicity, organism-based; conditions: in vivo, 1 h, dose 10-60 mg/kg
[20] = Antitumor activity against paclitaxel-resistant human MCF7/TxR cells xenografted in Balb/c mouse assessed as tumor growth inhibition at 5 mg/kg, ip administered for every 2 days for 21 days; type: functional; conditions: read-out: TGI
[21] = Toxicity in Balb/c mouse assessed as pathological changes in blood creatine kinase level at 20 mg/kg, ip administered for every 2 days for 14 days; type: organism-based; conditions: in vivo, 336 h, time 14 day
[22] = molecular target: Tubulin beta (Homo sapiens) (UniProt P68371+Q9H4B7+Q13509+P04350+Q3ZCM7+P07437+Q13885+Q9BVA1+Q9BUF5+A6NNZ2); test: Binding affinity to beta-tubulin colchicine binding site in human MCF-7 cells assessed as inhibition of EBI-beta-tubulin adduct band formation preincubated for 2 hrs followed by EBI addition and measured after 1.5 hrs by EBI competition based Western blotting analysis; type: cell-based; conditions: MCF7, dose 0.2-25 µM, time 3.5 hrs
[23] = Toxicity in Balb/c mouse assessed as pathological changes in blood aspartate aminotransferase level at 20 mg/kg, ip administered for every 2 days for 14 days; type: organism-based; conditions: in vivo, 336 h, time 14 day
[24] = Cardiotoxicity in Sprague-Dawley rat assessed as QT correction value at 10 to 60 mg/kg, iv measured upto 60 mins by electrocardiography; type: toxicity, organism-based; conditions: in vivo, 1 h, dose 10-60 mg/kg
A549/TxR = test: Inhibition of colony formation of paclitaxel-resistant human A549/TxR cells at 20 nM measured after 24 hrs by crystal violet based assay; type: functional, cell-based
[25] = Cardiotoxicity in Sprague-Dawley rat assessed as Qt interval at 10 to 60 mg/kg, iv measured upto 60 mins by electrocardiography; type: toxicity, organism-based; conditions: in vivo, 1 h, dose 10-60 mg/kg
[26] = Toxicity in Balb/c mouse assessed as pathological changes in blood lactic dehydrogenase level at 20 mg/kg, ip administered for every 2 days for 14 days; type: organism-based; conditions: in vivo, 336 h, time 14 day
MCF7 [27] = test: Induction of cell cycle arrest in human MCF7 cells assessed as acetyl-alpha tubulin at 20 nM in presence of roscovitine measured after 24 hrs by Western blot analysis; type: functional, cell-based
[28] = Toxicity in Balb/c mouse assessed as pathological changes in blood creatinine level at 20 mg/kg, ip administered for every 2 days for 14 days; type: organism-based; conditions: in vivo, 336 h, time 14 day
MCF7 [29] = test: Induction of apoptosis in human MCF7 cells assessed as upregulation of p-Bim L protein expression at 5 to 20 nM measured after 24 hrs by Western blot analysis; type: functional, cell-based; conditions: dose 5-20 nM
[30] = Cardiotoxicity in Sprague-Dawley rat assessed as QTcf value at 10 to 60 mg/kg, iv measured upto 60 mins by electrocardiography; type: toxicity, organism-based; conditions: in vivo, 1 h, dose 10-60 mg/kg
MCF7 [31] = test: Antiproliferative activity against human MCF7 cells assessed as survival rate at 20 nM in presence of roscovitine measured after 72 hrs by MTT assay relative to control; type: functional
MCF7 [32] = test: Antitumor activity against human MCF7 cells xenografted in Balb/c mouse assessed as tumor growth inhibition at 5 mg/kg, ip administered for every 2 days for 21 days; type: functional; conditions: MCF7, 504 h, time 21 day, read-out: TGI
[33] = Aqueous solubility in pH 7.4 PBS buffer by HPLC-UV analysis; type: physicochemical

COc1c(Cl)cc([C@@H]2c3cc4c(cc3C[C@H]3C(=O)NC(=O)N23)OCCO4)cc1Cl
IC50 (HT-29): 8.3 nM
CL [1]: 65 mL/min/kg
Activity (MCF7 [2]): Active
Activity (MCF7 [3]): 16%
Activity (MCF7 [4]): inactive
IC50 (K562): 6.3 nM
Activity (MCF7 [5]): 31.55%
inhibition in vivo at 20 mg/kg [6]: 67.7%
Activity (MCF7 [7]): inactive
Activity (Tubulin (Homo sapiens)): Active
Tmax [8]: 6.6 min
AUCt [9]: 6530 ng·h/mL
IC50 (MCF7 [10]): 9.2 nM
Activity (MCF7 [11]): Dose-Dependent Effect
Activity [12]: Non-Toxic
Activity (HUVEC [13]): Dose-Dependent Effect
Vd [14]: 6.99 L/kg
Activity (HUVEC [15]): Dose-Dependent Effect
Activity [16]: Non-Toxic
Activity [17]: Non-Toxic
inhibition in vivo at 10 mg/kg [18]: 49.2%
Activity [19]: Non-Toxic
inhibition in vivo at 5 mg/kg [20]: 38.9%
Activity [21]: Non-Toxic
Activity [22]: Dose-Dependent Effect
Activity [23]: Non-Toxic
Activity [24]: Non-Toxic
inhibition (A549/TxR): Active
Activity [25]: Non-Toxic
Activity [26]: Non-Toxic
Activity (MCF7 [27]): Active
Activity [28]: Non-Toxic
Activity (MCF7 [29]): Active
Activity [30]: Non-Toxic
Activity (MCF7 [31]): 60.71%
inhibition in vivo at 5 mg/kg (MCF7 [32]): 41%
solubility [33]: 2.85 µg/mL (≈ 6.55 µM)

COc1c(Br)cc([C@@H]2c3cc4c(cc3C[C@H]3C(=O)NC(=O)N23)OCCO4)cc1Br
IC50 (HT-29): 4.4 nM
Activity (MCF7 [2]): Active
Activity (MCF7 [3]): 16%
IC50 (K562): 5.3 nM
IC50 (MCF7 [10]): 3.5 nM
Activity (MCF7 [11]): Dose-Dependent Effect
Activity (HUVEC [13]): Dose-Dependent Effect
Activity (HUVEC [15]): Dose-Dependent Effect
inhibition (A549/TxR): Active
Activity (MCF7 [29]): Active
inhibition in vivo at 5 mg/kg (MCF7 [32]): 20.8%
solubility [33]: < 0.5 µg/mL
